Tests used:
[1] = biological target: T1, IRAK4 protein in THP-1 cells (Homo sapiens, UniProt Q9NWZ3); test: Degradation of IRAK4 in THP-1 cells (Western blot); assay type: cell-based; settings: 24 hours, compound 1-3000 nM
T1 construct: endogenous in cells; host or cells: THP-1
T1 sequence (Q9NWZ3 1-460): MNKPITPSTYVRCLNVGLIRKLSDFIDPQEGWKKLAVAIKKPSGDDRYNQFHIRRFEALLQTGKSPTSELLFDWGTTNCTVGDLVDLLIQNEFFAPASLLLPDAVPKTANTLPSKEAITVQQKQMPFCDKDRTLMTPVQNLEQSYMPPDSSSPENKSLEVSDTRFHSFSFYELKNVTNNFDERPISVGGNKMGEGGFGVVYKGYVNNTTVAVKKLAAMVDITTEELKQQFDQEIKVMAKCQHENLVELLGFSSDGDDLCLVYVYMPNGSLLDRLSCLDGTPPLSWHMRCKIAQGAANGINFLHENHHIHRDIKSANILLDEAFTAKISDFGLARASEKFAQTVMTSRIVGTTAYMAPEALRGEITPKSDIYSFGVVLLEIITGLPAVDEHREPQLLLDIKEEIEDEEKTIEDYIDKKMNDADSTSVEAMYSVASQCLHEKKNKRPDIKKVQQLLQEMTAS
Description: Each well of the 24-well cell culture plate was inoculated with 0.95 mL THP-1 cells (stem cell bank of Chinese academy of sciences) with a cell density of 5×10^5 cells/well. The cell plate was placed in a 5% carbon dioxide incubator and cultured overnight at 37° C., then 50 μL compound in dimethyl sulfoxide was added. The final concentration of the compound was in the range of 1-3000 nM. After continuous cultivation for 24 hours, the cells were collected into a 1.5 mL centrifuge tube, centrifuged at 1000 rpm and 4° C. for 5 minutes. Cell precipitation was cleaned twice with 1-DPBS, resuspended cells were lysed with 200 μL lysate (cell lysate was Western and IP cell lysate (Beyotime), supplemented with 1 mM mixture of phenylmethylsulfonyl fluoride and protease inhibitor (Beyotime)), left on ice for 30 minutes, then centrifuged at 14000 g at 4° C. for 10 minutes, and the supernatant was taken to detect IRAK4 protein level by Western blot.
Western blot method: The total protein concentration in the supernatant of cell lysis was determined by BCA protein quantitative kit (Tiangen). According to the concentration of total protein detected by BCA, the supernatant was adjusted to 0.2 μg/μL with PBS and 5× SDS-PAGE protein loading buffer (Beyotime), bathed in water at 100° C. for 10 minutes, then placed in ice bath for 5 minutes, centrifuged at 14000 g and 4° C. for 5 minutes, and then collected as WB loading sample. Prefabricated glue (KeyGEN) was used for protein electrophoresis with a loading amount of 10 μL (total protein 2 μg). After Tris-MOPS-SDS electrophoresis solution (Adamas), 120V constant pressure electrophoresis was performed. After electrophoresis, the protein on the adhesive strip was transferred to PVDF membrane with a constant current of […] for 50 minutes. After the membrane was transferred, the membrane was placed in 1×QuickBlock blocking buffer (Beyotime) and incubated for 30 minutes at room temperature. After blocking, PVDF membranes were incubated with IRAK4 primary antibody (Abcam) overnight at 4°, the membranes were washed with TBST buffer (2.4 g Tris, 8.8 g NaCl, 1.5 mL Tween 20, pH adjusted to 7.4, constant volume to 1 L) for 30 minutes, incubated with secondary antibody (Abcam) for 2 hours at room temperature, finally incubated with Clarity Western ECL Substrate(BIO-RAD) for 5 minutes for luminescence development, chemiluminescence imaging system (Clinx, chemiScope 6200 Touch) for development and protein mapping photography. The protein map was analyzed by Clinx chemiluminescence analysis software for grayscale values. Using the formula: grayscale correction value=(target protein grayscale value/corresponding internal reference grayscale value)×10^3, the grayscale correction value of each sample was calculated. The degradation rate was calculated by comparing with the grayscale correction value of the control group. Furthermore, DC50 and Dmax values of the compound were obtained by the nonlinear curve fitting with the logarithmic concentration-inhibition rate by GraphPad Prism 7.

IRAK4 kinase = biological target: T2, IRAK4 kinase (Homo sapiens, UniProt Q9NWZ3); test: IRAK4 kinase activity test (KinEASE-STK S1 HTRF kit); assay type: biochemical; settings: 2.5 nM kinase, 1 μM biotinylated polypeptide substrate, 7 μM ATP, 37° C. 120 min
T2 sequence (Q9NWZ3 1-460): T1 sequence (Q9NWZ3 1-460)
Description: KinEASE-STK S1 serine/threonine kinase kit (Cisbio) was used to detect the inhibitory effect of the compound on IRAK4 kinase activity. The specific method was: the compound was dissolved in dimethyl sulfoxide, and then it was diluted with the buffer solution of the kit by equal gradient to make the final concentration range of the tested compound in the reaction system 10000 nM-0.038 nM, then 2.5 nM kinase, 1 μM biotinylated polypeptide substrate and 7 μM adenosine triphosphate (ATP) were added in sequence and incubated at 37° C. for 120 min. Subsequently, anti-phosphorylated serine/threonine antibody coupled with europium element compound and modified XL665 streptavidin were added to the reaction system to terminate the reaction. After incubating at room temperature for 1 h, the fluorescence intensity of each well at the emission wavelength of 620 nm and 665 nm and the excitation wavelength of 337 nm was determined in HTRF mode on the microplate reader EnVision(PerkinElmer), the ratio value was calculated using the formula Ratio=(665 nm/620 nm)×10^4. By comparing with the fluorescence intensity ratio of the control group, the inhibition rate of the compound at each concentration was calculated, and then the IC50 value of the compound was obtained by fitting the nonlinear curve with the logarithmic concentration-inhibition rate by GraphPad Prism 7.

DC50 [1] | Dmax [1] | IC50 (IRAK4 kinase) | Compound
4 nM | 90.1% | 18 nM | COc1ccc(C(=O)N2CCC3(CCC(CCN4CCC(n5cc6cc(NC(=O)c7cccc(C(F)(F)F)n7)c(C(C)(C)O)cc6n5)CC4)CC3)CC2)cc1N1CCC(=O)NC1=O [Example 21, N-(2-(1-(2-(3-(3-(2,4-dioxotetrahydro-pyrimidin-1 (2H)-yl)-4-me-thoxybenzoyl)-3-azaspiro [5.5]undec-9-yl)ethyl)piperidin-4-yl)-6-(2-hydroxyprop-2-yl)-2H-indazol-5-yl)-6-(trifluoro-methyl) pyridinecarbox-amide]
16.4 nM | 94.3% | 11.7 nM | COc1ccc(C(=O)N2CCC(CCCN3CCC(n4cc5cc(NC(=O)c6cccc(C(F)(F)F)n6)c(C(C)(C)O)cc5n4)CC3)CC2)cc1N1CCC(=O)NC1=O [Example 22, N-(2-(1-(3-(1-(3-(2,4-dioxotetrahydro-pyrimidin-1 (2H)-yl)-4-me-thoxybenzoyl)piperidin-4-yl)propyl)piperidin-4-yl)-6-(2-hydroxyprop-2-yl)-2H-inda-zol-5-yl)-6-(trifluoromethyl) pyridinecarbox-amide]
32.4 nM | 97.6% | 8.5 nM | COc1ccc(C(=O)N2CCC(OCCN3CCC(n4cc5cc(NC(=O)c6cccc(C(F)(F)F)n6)c(C(C)(C)O)cc5n4)CC3)CC2)cc1N1CCC(=O)NC1=O [Example 23, N-(2-(1-(2-((1-(3-(2,4-dioxotetrahydro-pyrimidin-1 (2H)-yl)-4-me-thoxybenzoyl)piperidin-4-yl)oxy)ethyl)piperdin-4-yl)-6-(2-hydroxyprop-2-yl)-2H-inda-zol-5-yl)-6-(triflu-oromethyl) pyridinecarbox-amide]
0.82 nM | 98% | 13.7 nM | CCOc1ccc(C(=O)N2CCC3(CC2)CC(CCN2CCC(n4cc5cc(NC(=O)c6cccc(C(F)(F)F)n6)c(C(C)(C)O)cc5n4)CC2)C3)cc1N1CCC(=O)NC1=O [Example 25]
1 nM | 86.9% | 6.5 nM | COc1ccc(C(=O)N2CCC3(CC2)CC(CCN2CCC(n4cc5cc(NC(=O)c6cccc(C(F)(F)F)n6)c(C(C)(C)O)cc5n4)CC2)C3)cc1N1CCC(=O)NC1=O [Example 26]
3.5 nM | 96.3% | 13.8 nM | CC(C)(O)c1cc2nn(C3CCN(CCC4CC5(CCN(C(=O)c6ccc(Cl)c(N7CCC(=O)NC7=O)c6)CC5)C4)CC3)cc2cc1NC(=O)c1cccc(C(F)(F)F)n1 [Example 27]
2.3 nM | 98.4% | 16 nM | COc1cc2nn(C3CCN(CC4CCC5(CC4)CCN(C(=O)c4ccc(OC)c(N6CCC(=O)NC6=O)c4)CC5)CC3)cc2cc1NC(=O)c1cccc(C(F)(F)F)n1 [Example 30, N-(2-(1-((3-(3-(2,4-dioxotetrahydro-pyrimidin-1 (2H)-yl)-4-me-thoxybenzoyl)-3-azaspiro[5.5]undec-9-yl)methyl)piperidin-4-yl)-6-methoxy-2H-indazol-5-yl)-6-(tri-fluoromethyl) pyridinecarbox-amide]
2.1 nM | 96.6% | 17.2 nM | COc1ccc(C(=O)N2CCC3(CCC(CN4CCC(n5cc6cc(NC(=O)c7cccc(C(F)(F)F)n7)c(C(C)(C)O)cc6n5)CC4)CC3)CC2)cc1N1CCC(=O)NC1=O [Example 33, N-(2-(1-((3-(3-(2-4-dioxotetrahydro-pyrimidin-1 (2H)-yl)-4-me-thoxybenzoyl)-3-azaspiro [5.5]undec-9-yl)methyl)piperdin-4-yl)-6-(2-hydroxyprop-2-yl)-2H-indazol-5-yl)-6-(trifluoro-methyl) pyridinecarbox-amide]
8.4 nM | 95.2% | 10.3 nM | CC(C)(O)c1cc2nn(C3CCN(CCC4CCN(C(=O)c5ccc(Cl)c(N6CCC(=O)NC6=O)c5)CC4)CC3)cc2cc1NC(=O)c1cccc(C(F)(F)F)n1 [Example 35]
4 nM | 92.5% | 11.8 nM | CC(C)(O)c1cc2nn(C3CCN(CC4CC5(CCN(C(=O)c6ccc(Cl)c(N7CCC(=O)NC7=O)c6)CC5)C4)CC3)cc2cc1NC(=O)c1cccc(C(F)(F)F)n1 [Example 36, N-(2-(1-((7-(4-chloro-3-(2,4-dioxotetrahydro-pyrimidin-1 (2H)-yl)benzoyl)-7-azaspiro [3.5]non-2-yl)methyl)piperdin-4-yl)-6-(2-hydroxyprop-2-yl)-2H-indazol-5-yl)-6-(trifluoro-methyl) pyridinecarbox-amide]
10.5 nM | 89.4% | 16.7 nM | COc1cc2nn(C3CCN(CC4CC5(CCN(C(=O)c6ccc(Cl)c(N7CCC(=O)NC7=O)c6)CC5)C4)CC3)cc2cc1NC(=O)c1cccc(C(F)(F)F)n1 [Example 39, N-(2-(1-((7-(4-chloro-3-(2,4-dioxotetrahydro-pyrimidin-1 (2H)-yl)benzoyl)-7-azospiro [3.5]non-2-yl)methyl)piperidin-4-yl)-6-methoxy-2H-indazol-5-yl)-6-(trifluoromethyl) pyridinecarbox-amide]
7.8 nM | 100% | 39.2 nM | COc1cc2nn(C3CCN(CC4CCC5(CC4)CCN(C(=O)c4ccc(F)c(C6CCC(=O)NC6=O)c4)CC5)CC3)cc2cc1NC(=O)c1cccc(C(F)(F)F)n1 (stereo not drawn) [Example 42, N-(2-(1-((3-(3-(2,6-dioxopiperidin-3-yl)-4-fluoro-benzoyl)-3-azaspiro [5.5]undec-9-yl)methyl)piperidin-4-yl)-6-methoxy-2H-indazol-5-yl)-6-(trifluoromethyl) pyridinecarbox-amide]
4.9 nM | 98.7% | 24.2 nM | COc1cc2nn(C3CCN(CCC4CC5(CCN(C(=O)c6ccc(Cl)c(N7CCC(=O)NC7=O)c6)CC5)C4)CC3)cc2cc1NC(=O)c1cccc(C(F)(F)F)n1 [Example 43, N-(2-(1-(2 (7-(4-chloro-3-(2,4-dioxotetrahydro-pyrimidin-1 (2H)-yl)benzoyl)-7-azospiro [3.5]non-2-yl)ethyl)piperidin-4-yl)-6-methoxy-2H-indazol-5-yl)-6-(trifluoromethyl) pyridinecarbox-amide]
2.3 nM | 98.5% | 52.4 nM | COc1cc2nn(C3CCN(CC4CCC5(CC4)CCN(C(=O)c4ccc(F)c(N6CCC(=O)NC6=O)c4)CC5)CC3)cc2cc1NC(=O)c1cccc(C(F)(F)F)n1 [Example 44, N-(2-(1-((3-(3-(2,4-dioxotetrahydro-pyrimidin-1 (2H)-yl)-4-fluoro-benzoyl)-3-azaspiro[5.5]undec-9-yl)methyl)piperidin-4-yl)-6-methoxy-2H-indazol-5-yl)-6-(trifluoromethyl) pyridinecarbox-amide]
